Assay results taken from ChEMBL document CHEMBL4371091, “Hypalocrinins, Taurine-Conjugated Anthraquinone and Biaryl Pigments from the Deep Sea Crinoid Hypalocrinus naresianus” (J Nat Prod, 2019).
The source made the active and inactive calls. The calls are words filed in the database; no cut-off is given here.

Experiments:
[1] = Solubility of the compound in water; format: physicochemical; settings: buffer
[2] = tested on: HT-29; assay: Cytotoxicity against human HT-29 cells at 25 ug/ml; format: functional, cell-based
[3] = tested on: A549; assay: Cytotoxicity against human A549 cells at 25 ug/ml; format: functional, cell-based
[4] = tested on: PSN1; assay: Cytotoxicity against human PSN1 cells at 25 ug/ml; format: functional, cell-based
[5] = tested on: MDA-MB-231; assay: Cytotoxicity against human MDA-MB-231 cells at 25 ug/ml; format: functional, cell-based

In the case of `O=C(NCCS(=O)(=O)O)c1cc(OS(=O)(=O)O)c2c(c1)C(=O)c1cc(O)c(-c3c(O)c(Br)c(O)c4c3C(=O)c3cc(C(=O)NCCS(=O)(=O)O)cc(OS(=O)(=O)O)c3C4=O)c(O)c1C2=O`, the solubility [1] is reported as “Soluble”.

In the case of `O=C(NCCS(=O)(=O)O)c1cc(O)c2c(c1)C(=O)c1c(c(O)c(Br)c(O)c1-c1c(O)cc3c(c1O)C(=O)c1c(OS(=O)(=O)O)cc(C(=O)NCCS(=O)(=O)O)cc1C3=O)C2=O`, the solubility [1] is reported as “Soluble”.

For `CCCc1cc(O)c2c(c1)C(=O)c1cc(O)c(CNCCS(=O)(=O)O)c(O)c1C2=O`, the solubility [1] was “Soluble”.

With `O=C(NCCS(=O)(=O)O)c1cc(O)c2c(c1)C(=O)c1cc(O)c(Br)c(O)c1C2=O` the Activity [2] was “inactive”, the solubility [1] was “Soluble” and the Activity [3] was “inactive”. The Activity [4] was “inactive” and the Activity [5] was “inactive”.

In the case of `O=C(NCCS(=O)(=O)O)c1cc(O)c2c(c1)C(=O)c1cc(O)c(CNCCS(=O)(=O)O)c(O)c1C2=O`, the solubility [1] is reported as “Soluble”.

In the case of `CCCc1cc(O)c2c(c1)C(=O)c1cc(OS(=O)(=O)O)cc(O)c1C2=O`, the solubility [1] is reported as “Soluble”.

For `O=C(NCCS(=O)(=O)O)c1cc(O)c2c(c1)C(=O)c1cc(O)cc(O)c1C2=O`, the solubility [1] was “Soluble”.

With `O=C(NCCS(=O)(=O)O)c1cc(OS(=O)(=O)O)c2c(c1)C(=O)c1cc(O)c(Br)c(O)c1C2=O` the solubility [1] was “Soluble”.

For `O=C(O)c1cc(O)c2c(c1)C(=O)c1cc(O)c(Br)c(O)c1C2=O`, the solubility [1] was “Soluble”.
